Assay results taken from US8921426B2, “Cationic bis-urea compounds as effective antimicrobial agents” (International Business Machines Corporation, priority 2012, dated 2014).
≈ marks a conversion by molar mass, not a printed value. Entries after “also recorded” stand apart in the source; their conditions may differ. Read-outs that look alike come from different tables or passages of the source.

What was measured:
C. albicans = experiment: Killing efficiency, spread plate method, C. albicans; format: cell-based, Candida albicans; conditions: for killing of C. albicans cells: 24 hour treatment
Protocol: (§1) Antimicrobial activities of cationic compounds were also tested through a spread plate method. B. subtilis and C. albicans were treated at half MIC, MIC and 2×MIC concentrations of cationic compounds. At predetermined time (18 hours for B. subtilis and 24 hours for C. albicans and C. neoformans), microbial suspensions were withdrawn, diluted sequentially, and then plated on 1.5% lysogeny broth (LB) agar plates. The plates were incubated for 24 hours at 37° C. (48 hours at room temperature for C. albicans). Microbial colonies were formed and counted. The results are expressed as % kill=(cell count of control−survivor count of samples)/cell count of control×100. The experiments were performed in triplicate and were repeated three times.

rat red blood cells = experiment: Hemolysis of rat red blood cells; format: cell-based; conditions: one hour at 37° C.
Protocol: Fresh rat blood cells were washed with PBS three times. 100 microliters of red blood cell suspension in PBS (4% in volume) was introduced to each well of a 96 well-plate and 100 microliters of cationic compound solution was then added to the well. PBS and TRITON X-100 (0.2%) were used as control. The plates were incubated for one hour at 37° C. The 96 well plates were centrifuged at 4000 rpm for 5 minutes. Aliquots (100 microliters) of the supernatant were transferred to a new 96 well plate. Hemoglobin release was measured at 576 nm using a microplate reader (TECAN). The red blood cells in PBS were used as a negative control. Absorbance of wells with red cells lysed with 0.2% TRITON X-100 was taken as 100% hemolysis. Percentage of hemolysis was calculated using the following formula (OD576nm=optical density at 576 nm): Hemolysis (%)=[(OD576nm of the sample−OD576nm of PBS)/(OD576nm of 0.2% TRITON X-100−OD576nm of PBS)×100. The data were expressed as mean and standard deviation of four replicates and the tests were repeated three times.

B. subtilis = experiment: Killing efficiency, spread plate method, B. subtilis; format: cell-based, Bacillus subtilis; conditions: 18 hour treatment
Protocol: as §1

[1] = system: Bacillus subtilis (B. subtilis) (ATCC No. 23857); experiment: MIC, broth microdilution, B. subtilis; format: cell-based; conditions: ATCC23857, TSB, 37° C., 18 hours
Protocol: (§2) The minimum inhibitory concentration (MIC) of each of the cationic compounds was measured using a broth microdilution method. The cationic compound were dissolved in DI water at a concentration of 2500 mg/L. The samples were further diluted to 31.25, 62.5, 125, 250.0, 500.0 and 1000.0 mg/L using TSB or YMB. The B. subtilis cells were grown in TSB overnight in an incubator at 37° C. The C. albicans cells were grown in YMB at room temperature. The optical density of the bacterial solution was adjusted to OD600 nm=0.07 to 0.08 by the addition of TSB or YMB. This bacterial solution was further diluted 1000 times. Cationic compound solution (100 microliters) was transferred to each well of 96 well plates (NUNC), followed by the addition of 100 microliters of the bacterial solution. TSB or YMB was used as control. B. subtilis cells were incubated at 37° C. overnight in TSB. C. albicans cells were cultured in YMB at room temperature. C. neoformans were inoculated in MHB broth and grew overnight at 37° C. with shaking at 250 rpm. The optical density readings of bacterial solutions were monitored by measuring OD600nm in predetermined times (0 hours and 18 hours for B. subtilis while 0 hours and 24 hours for C. albicans). The assay was performed in four replicates for each sample and the experiments were repeated at least three times.

[2] = system: primary human dermal fibroblasts; experiment: MTT cytotoxicity assay; format: cell-based; conditions: 24 hours at 37° C.
Protocol: The cytotoxicity tests of the cationic bis-urea compounds were performed in primary human fibroblasts using MTT assay. The cells were cultured in DMEM supplemented with 10% FBS, 5% penicillin, 2 mM L-glutamine (Sigma) and incubated at 37° C., 5% CO2. The cells were seeded onto 96-well plates at a density of 10,000 cells per well and incubated for one day. Cationic compounds were diluted with the growth medium to give final concentrations of 31.25, 62.5, 125, 250.0, 500.0, 1000.0 and 2500.0 mg/L. The media were replaced with 100 microliters of the pre-prepared samples. The plates were then returned to the incubator and maintained in 5% CO2 at 37° C. for 24 hours. Fresh growth media (100 microliters) containing 10% MTT solution (5 mg/mL) were used to replace the mixture in each well after 24 hours. The plates were then returned to the incubator and maintained in 5% CO2 at 37° C. for a further 4 hours. The growth medium and excess MTT in each well were then removed. DMSO (150 microliters) was then added to each well to dissolve the internalized purple formazan crystals. An aliquot of 100 microliters was taken from each well and transferred to a fresh 96-well plate. Each sample was tested in eight replicates per plate. The plates were then assayed at 550 nm and 690 nm. The absorbance readings of the formazan crystals were taken to be the absorbance at 550 nm minus the absorbance at 690 nm. The results were expressed as a percentage of the absorbance of the blank control.

[3] = Critical micelle concentration (CMC) by intensity of scattered light; format: physicochemical; conditions: cationic bis-urea compounds; stock diluted using DI water
Protocol: The intensity of scattered light (in kilo counts per second) was recorded as a function of cationic compounds concentration ranging from 0.0 to 250.0 mg/L. A stock polymer solution was prepared with a concentration of 1000.0 mg/L, and diluted using DI water to various concentrations. The intensity of scattered light was plotted against polymer concentration. The CMC value was taken from the intersection of the tangent to the curve at the inflection with the horizontal tangent through the points at low concentrations.

[4] = system: Candida albicans (C. albicans) (ATCC No. 10231); experiment: MIC, broth microdilution, C. albicans; format: cell-based; conditions: for MIC: Candida albicans, read-out: MIC C. albicans
Protocol: as §2

[5] = Zeta potential (Zetasizer); format: physicochemical; conditions: cationic bis-urea compounds, 1000 mg/L; method names PBS pH 7.4 and DI water, table does not say which
Protocol: The zeta potential of the cationic compounds in phosphate-buffered saline (PBS, pH 7.4) and deionized (DI) water was measured by Zetasizer 3000 HAS (Malvern Instrument Ltd., Malvern, UK) equipped with a He—Ne laser beam at […] (scattering angle: 90°). The concentration of cationic compounds was 1000 mg/L. Each measurement was repeated 5 times. An average value was obtained from the five measurements.

C. neoformans cells = experiment: TEM of C. neoformans cells before and after treatment; format: cell-based, Cryptococcus neoformans; conditions: 8 hours, FIG. 7B
Protocol: The morphology of the C. neoformans before and after treatment with cationic compound CBU2 was observed under a JEM-1230 TEM (JEOL, Japan) using an acceleration voltage of 80 keV. The C. neoformans (1.5 mL) was incubated with 0.5 mL of CBU2 solution for 8 hours. The solution was then centrifuged at 4000 rpm for 10 minutes, and the supernatant removed. The […] was washed with PBS twice and then fixed in formalin solution containing 2.5% glutaraldehyde overnight. The sample was then washed by PBS three times (15 minutes each) and then post fixed with 1% OsO4 in phosphate buffer (pH 7.0) for one hour. The fixed samples were washed in phosphate buffer three times (15 minutes each), followed by dehydration in a graded ethanol series. The samples were incubated with the mixtures of acetone and Spun resin (1:1 in volume) for one hour at room temperature, and then transferred to 1:3 mixture of acetone and Spun resin for 3 hours, and to Spun resin overnight. Ultrathin sections (70-90 nm) were cut using a Reichert-Jung Ultracut E ultramicrotome, and post-stained with uranyl acetate and lead citrate for 15 minutes each prior to TEM observations. Spun resin can be prepared from a kit by combining 3,4 epoxy cyclohexyl methyl 3,4 epoxy cyclohexyl carboxylate (ERL-4221 resin from Polysciences) (10.0 g), nonenylsuccinic anhydride (26.0 g), and dimethylaminoethanol (0.4 g).

[6] = system: Cryptococcus neoformans (C. neoformans); experiment: MIC, broth microdilution, C. neoformans; format: cell-based; conditions: for MIC: Cryptococcus neoformans, read-out: MIC C. neoformans
Protocol: as §2

[7] = ATCC10231, YMB, room temperature, 24 hours
[8] = 24 hours, 1.0 and 2.0 times the MIC (FIG. 4A)
[9] = up to a concentration of 1000 mg/L

C[N+](C)(C)CCCNC(=O)Nc1ccc(CNC(=O)c2ccc(C(=O)NCc3ccc(NC(=O)NCCC[N+](C)(C)C)cc3)cc2)cc1.[I-].[I-] [CBU1]
killing of C. albicans cells (C. albicans; about 500 mg/L): 99%
HC50 (concentration that induces 50% hemolysis of rat red blood cells) (rat red blood cells): >>2500 mg/L
killing of B. subtilis cells (B. subtilis; about 500 mg/L): 100%
MIC [1]: 500 µg/mL
cell viability of primary human fibroblasts ([2]; up to a concentration of 250 mg/L): About 60%
CMC [3]: 170.0 mg/L
MIC [4, 7]: 500 µg/mL
Zeta Potential [5]: 47.0 mV

NCCCCNC(=O)Nc1ccc(CNC(=O)c2ccc(C(=O)NCc3ccc(NC(=O)NCCCCN)cc3)cc2)cc1 [CBU2]
cell membrane morphology after treatment (TEM) (C. neoformans cells): ruptured and show loss of intracellular material
killing efficiency against C. albicans (C. albicans; 31.2 mg/L, by 1 hour of incubation (FIG. 5)): 100%
killing efficiency against C. albicans (C. albicans; [8]): 100%
killing of C. albicans cells (C. albicans; about 31.2 mg/L): 100%
HC50 (concentration that induces 50% hemolysis of rat red blood cells) (rat red blood cells): >>1000 mg/L
killing of B. subtilis cells (B. subtilis; about 125 mg/L): 100%
MIC [1]: 125 µg/mL (≈ 207 µM)
CMC [3]: 20.0 mg/L
activity against C. albicans (in words) [4]: highly active; also recorded: more active
MIC [4, 7]: 31.2 µg/mL (≈ 51.8 µM)
activity against C. neoformans (in words) [6]: highly active
MIC ([6]; MHB broth, 37° C.): 62.5 µg/mL (≈ 104 µM)
Zeta Potential [5]: 36.7 mV

C[N+](C)(C)CCCNC(=O)Nc1ccc(NC(=O)c2ccc(C(=O)Nc3ccc(NC(=O)NCCC[N+](C)(C)C)cc3)cc2)cc1.[I-].[I-] [CBU3]
killing efficiency against C. albicans (C. albicans; [8]): 100%
killing of C. albicans cells (C. albicans; about 125 mg/L): 99.9%
HC50 (concentration that induces 50% hemolysis of rat red blood cells) (rat red blood cells): >>2500 mg/L
MIC [1]: 125 µg/mL
cell viability of primary human fibroblasts [2, 9]: More than 80%
CMC [3]: 110.0 mg/L
MIC [4, 7]: 250 µg/mL
Zeta Potential [5]: 32.8 mV

NCCNC(=O)Nc1ccc(CNC(=O)c2ccc(C(=O)NCc3ccc(NC(=O)NCCN)cc3)cc2)cc1 [CBU5]
HC50 (concentration that induces 50% hemolysis of rat red blood cells) (rat red blood cells): >>1000 mg/L
cell viability of primary human fibroblasts [2, 9]: About 80%
CMC [3]: 100.00 mg/L
activity against C. albicans (in words) [4]: highly active; also recorded: more active
MIC ([4]; ATCC10231, 24 h): 62.5 µg/mL (≈ 114 µM)
activity against C. neoformans (in words) [6]: highly active
MIC [6]: 125 µg/mL (≈ 229 µM)
Zeta Potential [5]: 32.2 mV

NCCCCCCNC(=O)Nc1ccc(CNC(=O)c2ccc(C(=O)NCc3ccc(NC(=O)NCCCCCCN)cc3)cc2)cc1 [CBU6]
HC50 (concentration that induces 50% hemolysis of rat red blood cells) (rat red blood cells): >>1000 mg/L
cell viability of primary human fibroblasts [2, 9]: About 80%
CMC [3]: 15.0 mg/L
activity against C. albicans (in words) [4]: highly active; also recorded: more active
MIC ([4]; ATCC10231, 24 h): 31.2 µg/mL (≈ 47.4 µM)
activity against C. neoformans (in words) [6]: highly active
MIC [6]: 62.5 µg/mL (≈ 94.9 µM)
Zeta Potential [5]: 35.3 mV

NCc1ccc(CNC(=O)Nc2ccc(CNC(=O)c3ccc(C(=O)NCc4ccc(NC(=O)NCc5ccc(CN)cc5)cc4)cc3)cc2)cc1 [CBU7]
HC50 (concentration that induces 50% hemolysis of rat red blood cells) (rat red blood cells): >>1000 mg/L
CMC [3]: 12.0 mg/L
activity against C. albicans (in words) [4]: highly active; also recorded: more active
MIC ([4]; ATCC10231, 24 h): 31.2 µg/mL (≈ 44.6 µM)
activity against C. neoformans (in words) [6]: highly active
MIC [6]: 31.2 µg/mL (≈ 44.6 µM)
Zeta Potential [5]: 45.1 mV
